Tested on: human heart-derived protein hNBC2b (Na+—HCO3− cotransporter)
Test: Analysis of functions of human heart-derived protein by intracellular pH measurement (BCECF, ammonium pre-pulse) in hNBC2b-33/CHO-K1 cell
Format: cell-based
Conditions: DIDS final concentration 100 μM, 1 mM amyloride present
Description: Data is expressed as mean±standard error. Comparison between 2 groups was carried out by T test and p<0.001 was determined to be significant. hNBC2b-33/CHO-K1 cell which had been cultured in Ham F12 medium (manufactured by Nissuiseiyaku) containing 10% bovine fetal serum (manufactured by Life Technologies, Inc.; USA) and wild type CHO-K1 cell as a control were seeded on a 96-well white plate to 2×10^4 cells/well, and cultured in a carbonic gas incubator at 37° C. for 48 hours. […] The solution was aspiration-removed, washed with 150 μl of A solution, the solution was aspiration-removed, 150 μl of A solution containing 1 mM amyloride (manufactured by Sigma) was added, and variation in an intracellular pH was measured with a fluorescent drug screening system FDSS 2000 (Hamamatsu Photonics). 200 μl of C solution (115 mM sodium chloride, 25 mM potassium chloride, 25 mM sodium bicarbonate, 0.8 mM dipotassium phosphate, 0.2 mM monopotassium phosphate, 1 mM potassium chloride, 1 mM magnesium chloride, 1 mM amyloride (manufactured by Sigma), 10 mM HEPES, pH 7.4) was added, and an increased amount of an intracellular pH increased in 1 minute (a ratio of fluorescent values at 450 nm and 490 nm (450 nm/490 nm)) was calculated. […]

O=S(=O)(O)c1cc(N=C=S)ccc1C=Cc1ccc(N=C=S)cc1S(=O)(=O)O [DIDS, 4,4′-diisothiocyanatostilbene-2,2′-disulfonic acid]
increase in an intracellular pH after addition of C solution containing sodium ions and bicarbonate ions (ratio of fluorescent values 450 nm/490 nm): suppressed

Source: patent US6723522B1, “Sodium bicarbonate cotransporter protein” (Takeda Chemical Industries, Ltd., priority 1998, dated 2004)
